This test concerns ACHN cell line. In words: drug screen of the SelleckChem kinase inhibitor library with and without 5 uM SU-329, Cell-Titer Glo after 5 days. As to conditions: kinase inhibitor at 200 nM with and without 5 uM SU329; ACHN cell line; 5 days; Cell-Titer Glo. The format is cell-based.

Where a name gives a salt, the structure may show the parent alone.

Consider `Cc1ccc(Nc2nccc(N(C)c3ccc4c(C)n(C)nc4c3)n2)cc1S(N)(=O)=O.Cl` [Pazopanib HCl (GW786034 HCl)], for which the log2fc amounted to 0.1817.
To `Cc1ccc(Nc2nccc(N(C)c3ccc4c(C)n(C)nc4c3)n2)cc1S(N)(=O)=O` [Pazopanib] belongs −0.1316.
To `CCOc1cc2ncc(C#N)c(Nc3ccc(F)c(Cl)c3)c2cc1NC(=O)/C=C/CN(C)C` [Pelitinib (EKB-569)] belongs 0.96; to `[H]/N=C(/N)N/C(=N/[H])NCCc1ccccc1` [Phenformin HCl], 0.5945; to `Oc1cc(O)cc(/C=C/c2ccc(O)c(O)c2)c1` [Piceatannol], 0.5447.
For `CS(=O)(=O)N1CCN(Cc2cc3nc(-c4cccc5[nH]ncc45)nc(N4CCOCC4)c3s2)CC1` [Pictilisib (GDC-0941)] the value was −1.17.
In turn, `O=C(NC[C@H](O)CO)c1ccncc1Nc1ccc(I)cc1F` [Pimasertib (AS-703026), AS703026, reference compound] showed a log2fc of 0.3252.
For `Cc1ccc(C(=O)Nc2ccc(CN3CCN(C)CC3)c(C(F)(F)F)c2)cc1C#Cc1cnc2cccnn12` [Ponatinib (AP24534)] the value was −0.4485.
`O=c1c(O)c(-c2ccc(O)c(O)c2)oc2cc(O)cc(O)c12` [Quercetin]: the log2fc is recorded as −0.449.
To `CC(C)(C)c1cc(NC(=O)Nc2ccc(-c3cn4c(n3)sc3cc(OCCN5CCOCC5)ccc34)cc2)no1` [Quizartinib (AC220)] belongs 0.278.
For `COc1cc(Nc2ncc(F)c(Nc3ccc4c(n3)NC(=O)C(C)(C)O4)n2)cc(OC)c1OC` [R406 (free base)] the value was 0.8334.
Take `Cn1c(Nc2ccc(C(F)(F)F)cc2)nc2cc(Oc3ccnc(-c4ncc(C(F)(F)F)[nH]4)c3)ccc21` [RAF265 (CHIR-265)]: the log2fc amounted to 0.9001.
To `O=C(NCc1cccc(O)c1)Nc1nc(-c2ccncc2)cs1` [RKI-1447] belongs −0.8453.
For `CN1CCN(c2ccc(Nc3cc(-c4cccc(-n5ccc6cc(C7CC7)cc(F)c6c5=O)c4CO)cn(C)c3=O)nc2)CC1` [RN486] the value was 0.08695; for `CO[C@H]1C[C@@H]2CC[C@@H](C)[C@@](O)(O2)C(=O)C(=O)N2CCCC[C@H]2C(=O)O[C@H]([C@H](C)C[C@@H]2CC[C@@H](O)[C@H](OC)C2)CC(=O)[C@H](C)/C=C(\C)[C@@H](O)[C@@H](OC)C(=O)[C@H](C)C[C@H](C)/C=C/C=C/C=C/1C` [Rapamycin (Sirolimus)], −1.552.
For `CNC(=O)c1cc(Oc2ccc(NC(=O)Nc3cc(C(C)(C)C)nn3-c3ccc4ncccc4c3)c(F)c2)ccn1` [Rebastinib (DCC-2036)] the value was 0.007715; for `COc1cc(F)c(F)c(Nc2ccc(I)cc2F)c1NS(=O)(=O)C1(C[C@H](O)CO)CC1` [Refametinib (RDEA119, Bay 86-9766)], 0.4867; for `CNC(=O)c1cc(Oc2ccc(NC(=O)Nc3ccc(Cl)c(C(F)(F)F)c3)c(F)c2)ccn1` [Regorafenib (BAY 73-4506)], 0.8333.
As to `CO[C@H]1C[C@@H]2CC[C@@H](C)[C@@](O)(O2)C(=O)C(=O)N2CCCC[C@H]2C(=O)O[C@H]([C@H](C)C[C@@H]2CC[C@@H](OP(C)(C)=O)[C@H](OC)C2)CC(=O)[C@H](C)/C=C(\C)[C@@H](O)[C@@H](OC)C(=O)[C@H](C)C[C@H](C)/C=C/C=C/C=C/1C` [Ridaforolimus (Deforolimus, MK-8669)], the log2fc is −1.384.
To `COc1cc(OC)c(/C=C/S(=O)(=O)Cc2ccc(OC)c(NCC(=O)O)c2)c(OC)c1` [Rigosertib (ON-01910)] belongs 0.6643; to `COc1cc(C(=O)NC2CCN(C)CC2)ccc1Nc1ncc2c(n1)N(C1CCCC1)CC(F)(F)C(=O)N2C` [Ro3280], 0.4269.
As to `C=CC(=O)Nc1cccc(Nc2nc(Nc3ccc(N4CCN(C(C)=O)CC4)cc3OC)ncc2C(F)(F)F)c1` [Rociletinib (CO-1686, AVL-301)], the log2fc is reported as −0.001899.
To `CC[C@H](CO)Nc1nc(NCc2ccccc2)c2ncn(C(C)C)c2n1` [Roscovitine (Seliciclib, CYC202)] belongs 0.5993; to `N#CC[C@H](C1CCCC1)n1cc(-c2ncnc3[nH]ccc23)cn1` [Ruxolitinib (INCB018424)], −0.1253; to `CCn1c(N)c(C(=O)NC)c(=O)c2ccc(C#C[C@@](C)(O)COC)nc21` [SAR131675], 0.374.
As for `Oc1ccc(-c2nc(-c3ccc(F)cc3)c(-c3ccncc3)[nH]2)cc1` [SB202190 (FHPI)], the log2fc is given as −0.3986.
On to `C[S+]([O-])c1ccc(-c2nc(-c3ccc(F)cc3)c(-c3ccncc3)[nH]2)cc1` (centres unmarked) [SB203580], for which the log2fc is −0.09424.
To `Cn1cc(C2=C(c3ccc(Cl)cc3Cl)C(=O)NC2=O)c2ccccc21` [SB216763] belongs 0.4708.
To `O=C1NC(=O)C(c2ccccc2[N+](=O)[O-])=C1Nc1ccc(O)c(Cl)c1` [SB415286] belongs 0.2736.
Take `CN(C)CCOc1ccc(-c2nc(-c3ccncc3)c(-c3ccc4c(c3)CC/C4=N\O)[nH]2)cc1` [SB590885]: the log2fc is on record as 0.2113.
To `CN1CCC(CNc2ccc3ncc(-c4cccc(OC(F)(F)F)c4)n3n2)CC1` [SGI-1776 free base] belongs −0.0254; to `Oc1ccc(Nc2nc(-c3ccc(Cl)cc3)cs2)cc1` [SKI II], 0.06564; to `N#C/C(=C(/N)Sc1ccc(N)cc1)c1ccccc1C(F)(F)F` [SL-327], −0.2882.
For the molecule `CC(C)(C)c1cnc(CSc2cnc(NC(=O)C3CCNCC3)s2)o1` [SNS-032 (BMS-387032)], the log2fc is −1.028.
In the case of `Oc1c2ccccc2c2c3c(cccc13)N=N2` [SP600125, reference compound], the log2fc worked out at 0.06823.
To `COc1c(C)c(C(=O)c2ccc(N)c(C(=O)[O-])c2)n2ccccc12.[Na+]` [SSR128129E] belongs 0.3473; to `Cc1[nH]c(/C=C2\C(=O)Nc3ccc(S(=O)(=O)N(C)c4cccc(Cl)c4)cc32)c(C)c1C(=O)N1CCN(C)CC1` [SU11274], 0.1013.
`CNC(=O)CN1CCC(Oc2cc3c(Nc4cccc(Cl)c4F)ncnc3cc2OC)CC1` [Sapitinib (AZD8931), AZD8931, reference compound] gave a log2fc of 0.358.
To `CN1CCN(CCOc2cc(OC3CCOCC3)c3c(Nc4c(Cl)ccc5c4OCO5)ncnc3c2)CC1` [Saracatinib (AZD0530)] belongs 0.4009; to `COc1cc2c(c(OC)c1OC)-c1c(cc3c(c1OC)OCO3)CC(C)C(C)C2` (centres unmarked) [Schisandrin B (Sch B)], 0.5674.
For `Cn1cnc2c(F)c(Nc3ccc(Br)cc3Cl)c(C(=O)NOCCO)cc21` [Selumetinib (AZD6244), selumetinib, reference compound] the value was 0.357; for `Cc1cc(C)c(/C=C2\C(=O)Nc3ccccc32)[nH]1` [Semaxanib (SU5416)], −0.8277; for `CNC(=O)c1cc(Oc2ccc(NC(=O)Nc3ccc(Cl)c(C(F)(F)F)c3)cc2)ccn1` [Sorafenib Tosylate], −0.2533.
For `CNC(=O)c1cc(Oc2ccc(NC(=O)Nc3ccc(Cl)c(C(F)(F)F)c3)cc2)ccn1` [Sorafenib, sorafenib, reference compound] the value was 0.2462; for `CN1CCN(c2nc(C3=C(c4c[nH]c5ccccc45)C(=O)NC3=O)c3ccccc3n2)CC1` [Sotrastaurin], 0.054; for `CCN(CC)CCNC(=O)c1c(C)[nH]c(/C=C2\C(=O)Nc3ccc(F)cc32)c1C` [Sunitinib Malate, sunitinib, reference compound], −0.1249.
As for `CNC(=O)c1ccccc1Nc1nc(Nc2ccc(N3CCOCC3)cc2OC)ncc1Cl` [TAE226 (NVP-TAE226)], the log2fc is listed as −0.08897.
For `CC(C)(O)CC(=O)NCCn1ccc2ncnc(Nc3ccc(Oc4cccc(C(F)(F)F)c4)c(Cl)c3)c21` [TAK-285, reference compound] the value was 0.3876; for `N#Cc1c(Oc2ccc(F)c(NC(=O)Cc3cccc(C(F)(F)F)c3)c2)ccc2nc(NC(=O)C3CC3)sc12` [TAK-632], 0.4732.
Turning to `CCc1nc(-c2cccc(C)c2)c(-c2ccnc(NC(=O)c3ccccc3)c2)s1` [TAK-715], the log2fc is recorded as 0.02439.
To `Cn1c(=O)c(F)c(Nc2ccc(I)cc2F)c2c(=O)n(C[C@@H](O)CO)cnc21` [TAK-733, reference compound] belongs 0.08618; to `CCS(=O)(=O)c1cccc(-c2cc(C(=O)NC3CCN(C)CC3)c(C)c3[nH]c4ncc(C)cc4c23)c1` [TAK-901], 0.2818.
In turn, `Cn1sc(=O)n(Cc2ccccc2)c1=O` [TDZD-8] yielded a log2fc of 0.1552.
Consider `CCN1/C(=C/C(C)=O)Sc2ccc(OC)cc21` [TG003], for which the log2fc stood at 0.4163.
To `Nc1nc(N)c2nc(-c3cccc(O)c3)c(-c3cccc(O)c3)nc2n1` [TG100-115] belongs 0.2334.
In the case of `Cc1cnc(Nc2ccc(N3CCN(C)CC3)cc2)nc1Nc1cccc(S(=O)(=O)NC(C)(C)C)c1` [TG101209], the log2fc is reported as −0.1573.
Turning to `Cc1cc(C(C)Nc2ccccc2)c2nc(N3CCOCC3)cc(=O)n2c1` (centres unmarked) [TGX-221], the log2fc was −0.3415.
For `NC(=O)Nc1sc(-c2ccc(F)cc2)cc1C(N)=O` [TPCA-1] the value was −0.08928; for `Nc1cccc(-c2cc3c(Oc4cccc(O)c4)ncnc3[nH]2)c1` [TWS119], 0.52.
Molecule `CNC(=O)c1cc(COc2nnc(Nc3ccc(Cl)cc3)c3ccoc23)ccn1` [Telatinib] gave a log2fc of 0.2479.
For `CO[C@H]1C[C@@H]2CC[C@@H](C)[C@@](O)(O2)C(=O)C(=O)N2CCCC[C@H]2C(=O)O[C@H]([C@H](C)C[C@@H]2CC[C@@H](OC(=O)C(C)(CO)CO)[C@H](OC)C2)CC(=O)[C@H](C)/C=C(\C)[C@@H](O)[C@@H](OC)C(=O)[C@H](C)C[C@H](C)/C=C/C=C/C=C/1C` [Temsirolimus (CCI-779, NSC 683864)] the value was −1.524; for `CN1CCC(COc2cnc(-c3cccc(Cn4nc(-c5cccc(C#N)c5)ccc4=O)c3)nc2)CC1` [Tepotinib (EMD 1214063)], 0.04059.

The values above are taken from patent US12195490B2, “STRAD-binding agents and uses thereof” (The Regents of the University of California, priority 2020, dated 2025).
